≈ marks a conversion by molar mass, not a printed value.

We go through 3 compounds from US11034650B2, “Compounds useful for treating a Mannheimia haemolytica or Histophilus somni infection” (Intervet Inc., priority 2016, dated 2021).

The test system of one assay is Mannheimia haemolytica MH 6357 (M7/2, reference strain, cattle infection strain). Nature of the assay: MIC, broth-microdilution (CLSI VET01-A4), strain MH 6357. In kind it is cell-based. The following applies: Mannheimia haemolytica strain MH 6357, broth-microdilution; unit assumed. An outline of the steps:
(§1)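 Compounds were serially diluted twofold in microdilution trays. Growth was judged by eye, and the MIC was the lowest concentration showing no turbidity. Results were interpreted per CLSI VET01-S3.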
(Broth dilution looks for growth in wells or tubes with falling amounts of substance.)
In turn, `CC(C)([C@H](NC(=O)c1ccc(C#Cc2ccc(CNC3CC3)s2)cc1)C(=O)NO)S(C)(=O)=O` [C.311] displayed an MIC MH 6357 of 0.2 µg/mL (≈ 0.408 µM).

In the case of `CC(=O)[C@H](NC(=O)c1ccc(C#Cc2ccc(CN3CCOCC3)cc2)cc1)C(=O)NO` [Compound 399], the MIC MH 6357 amounted to 3.1 µg/mL (≈ 7.12 µM).

Compound `COc1ccc(CNCc2ccc(C#Cc3ccc(C(=O)N[C@H](C(=O)NO)C(C)(C)O)cc3)cn2)cc1` [Compound 328] yielded an MIC MH 6357 of 0.8 µg/mL (≈ 1.59 µM).

The test system of the next assay is Mannheimia haemolytica MH 6374 (ATCC 33396, reference strain). Nature of the assay: MIC, broth-microdilution (CLSI VET01-A4), strain MH 6374. In kind it is cell-based. The following applies: Mannheimia haemolytica strain MH 6374, broth-microdilution; unit assumed. In short, it runs like this:
as §1
Compound `CC(C)([C@H](NC(=O)c1ccc(C#Cc2ccc(CNC3CC3)s2)cc1)C(=O)NO)S(C)(=O)=O` [C.311] gave an MIC MH 6374 of at most 0.1 µg/mL.

For `CC(=O)[C@H](NC(=O)c1ccc(C#Cc2ccc(CN3CCOCC3)cc2)cc1)C(=O)NO` [Compound 399], the MIC MH 6374 came out at 6.3 µg/mL (≈ 14.5 µM).

Regarding `COc1ccc(CNCc2ccc(C#Cc3ccc(C(=O)N[C@H](C(=O)NO)C(C)(C)O)cc3)cn2)cc1` [Compound 328], the MIC MH 6374 was 0.8 µg/mL (≈ 1.59 µM).

Another assay relates to Mannheimia haemolytica MH 10720 (154, BRD field isolate). In words: MIC, broth-microdilution (CLSI VET01-A4), strain MH 10720. In kind it is cell-based. As to conditions: Mannheimia haemolytica strain MH 10720, broth-microdilution; unit assumed. In short, it runs like this: as §1
As for `CC(C)([C@H](NC(=O)c1ccc(C#Cc2ccc(CNC3CC3)s2)cc1)C(=O)NO)S(C)(=O)=O` [C.311], the MIC MH 10720 is at most 0.1 µg/mL.

The compound `CC(=O)[C@H](NC(=O)c1ccc(C#Cc2ccc(CN3CCOCC3)cc2)cc1)C(=O)NO` [Compound 399] returned an MIC MH 10720 of 1.6 µg/mL (≈ 3.67 µM).

`COc1ccc(CNCc2ccc(C#Cc3ccc(C(=O)N[C@H](C(=O)NO)C(C)(C)O)cc3)cn2)cc1` [Compound 328] gave an MIC MH 10720 of at most 0.1 µg/mL.

Another assay deals with Mannheimia haemolytica MH 12587 (1071, BRD field isolate, macrolide-resistance: erm+, E+). In words: MIC, broth-microdilution (CLSI VET01-A4), strain MH 12587. In kind it is cell-based. As to conditions: Mannheimia haemolytica strain MH 12587, broth-microdilution; unit assumed. An outline of the steps:
as §1
In the case of `CC(C)([C@H](NC(=O)c1ccc(C#Cc2ccc(CNC3CC3)s2)cc1)C(=O)NO)S(C)(=O)=O` [C.311], the MIC MH 12587 is 0.4 µg/mL (≈ 0.817 µM).

Consider `CC(=O)[C@H](NC(=O)c1ccc(C#Cc2ccc(CN3CCOCC3)cc2)cc1)C(=O)NO` [Compound 399], for which the MIC MH 12587 was 1.6 µg/mL (≈ 3.67 µM).

`COc1ccc(CNCc2ccc(C#Cc3ccc(C(=O)N[C@H](C(=O)NO)C(C)(C)O)cc3)cn2)cc1` [Compound 328]: the MIC MH 12587 came out at 1.6 µg/mL (≈ 3.18 µM).

Another assay concerns Mannheimia haemolytica MH 13065 (XB0446-6003.9, BRD field isolate). In words: MIC, broth-microdilution (CLSI VET01-A4), strain MH 13065. Format: cell-based. The following applies: Mannheimia haemolytica strain MH 13065, broth-microdilution; unit assumed. An outline of the steps: as §1
As to `CC(C)([C@H](NC(=O)c1ccc(C#Cc2ccc(CNC3CC3)s2)cc1)C(=O)NO)S(C)(=O)=O` [C.311], the MIC MH 13065 was at most 0.1 µg/mL.

`CC(=O)[C@H](NC(=O)c1ccc(C#Cc2ccc(CN3CCOCC3)cc2)cc1)C(=O)NO` [Compound 399] displayed an MIC MH 13065 of 6.3 µg/mL (≈ 14.5 µM).

In turn, `COc1ccc(CNCc2ccc(C#Cc3ccc(C(=O)N[C@H](C(=O)NO)C(C)(C)O)cc3)cn2)cc1` [Compound 328] displayed an MIC MH 13065 of 0.8 µg/mL (≈ 1.59 µM).

A further assay deals with Mannheimia haemolytica MH 13093 (XB0472-6014.1, BRD field isolate). Nature of the assay: MIC, broth-microdilution (CLSI VET01-A4), strain MH 13093. The following applies: Mannheimia haemolytica strain MH 13093, broth-microdilution; unit assumed. In kind it is cell-based. An outline of the steps: as §1
`CC(C)([C@H](NC(=O)c1ccc(C#Cc2ccc(CNC3CC3)s2)cc1)C(=O)NO)S(C)(=O)=O` [C.311] came in with an MIC MH 13093 of 0.4 µg/mL (≈ 0.817 µM).

With `CC(=O)[C@H](NC(=O)c1ccc(C#Cc2ccc(CN3CCOCC3)cc2)cc1)C(=O)NO` [Compound 399], the MIC MH 13093 was found to be 6.3 µg/mL (≈ 14.5 µM).

`COc1ccc(CNCc2ccc(C#Cc3ccc(C(=O)N[C@H](C(=O)NO)C(C)(C)O)cc3)cn2)cc1` [Compound 328] gave an MIC MH 13093 of 0.8 µg/mL (≈ 1.59 µM).

The test system of a further assay is Pasteurella multocida PM 6267 (P 2225 (L386), reference strain, mouse infection strain). In words: MIC, broth-microdilution (CLSI VET01-A4), strain PM 6267. In kind it is cell-based. The following applies: Pasteurella multocida strain PM 6267, broth-microdilution; unit assumed. In short, it runs like this:
as §1
Consider `CC(C)([C@H](NC(=O)c1ccc(C#Cc2ccc(CNC3CC3)s2)cc1)C(=O)NO)S(C)(=O)=O` [C.311], for which the MIC PM 6267 was 0.4 µg/mL (≈ 0.817 µM).

Turning to `CC(=O)[C@H](NC(=O)c1ccc(C#Cc2ccc(CN3CCOCC3)cc2)cc1)C(=O)NO` [Compound 399], the MIC PM 6267 was 25 µg/mL (≈ 57.4 µM).

`COc1ccc(CNCc2ccc(C#Cc3ccc(C(=O)N[C@H](C(=O)NO)C(C)(C)O)cc3)cn2)cc1` [Compound 328] returned an MIC PM 6267 of 0.8 µg/mL (≈ 1.59 µM).

Another assay deals with Pasteurella multocida PM 6391 (ATCC 43137, reference strain). Nature of the assay: MIC, broth-microdilution (CLSI VET01-A4), strain PM 6391. As to conditions: Pasteurella multocida strain PM 6391, broth-microdilution; unit assumed. Format: cell-based. An outline of the steps: as §1
With `CC(C)([C@H](NC(=O)c1ccc(C#Cc2ccc(CNC3CC3)s2)cc1)C(=O)NO)S(C)(=O)=O` [C.311], the MIC PM 6391 was at most 0.1 µg/mL.

In the case of `CC(=O)[C@H](NC(=O)c1ccc(C#Cc2ccc(CN3CCOCC3)cc2)cc1)C(=O)NO` [Compound 399], the MIC PM 6391 was at most 0.1 µg/mL.

In the case of `COc1ccc(CNCc2ccc(C#Cc3ccc(C(=O)N[C@H](C(=O)NO)C(C)(C)O)cc3)cn2)cc1` [Compound 328], the MIC PM 6391 is at most 0.1 µg/mL.

In another assay the test system is Pasteurella multocida PM 10775 (080130003051, BRD field isolate). In words: MIC, broth-microdilution (CLSI VET01-A4), strain PM 10775. As to conditions: Pasteurella multocida strain PM 10775, broth-microdilution; unit assumed. Format: cell-based. In short, it runs like this:
as §1
On to `CC(C)([C@H](NC(=O)c1ccc(C#Cc2ccc(CNC3CC3)s2)cc1)C(=O)NO)S(C)(=O)=O` [C.311], for which the MIC PM 10775 is at most 0.1 µg/mL.

As to `CC(=O)[C@H](NC(=O)c1ccc(C#Cc2ccc(CN3CCOCC3)cc2)cc1)C(=O)NO` [Compound 399], the MIC PM 10775 stood at 0.8 µg/mL (≈ 1.84 µM).

`COc1ccc(CNCc2ccc(C#Cc3ccc(C(=O)N[C@H](C(=O)NO)C(C)(C)O)cc3)cn2)cc1` [Compound 328] yielded an MIC PM 10775 of at most 0.1 µg/mL.

A further assay deals with Pasteurella multocida PM 12080 (IV102277-0093, BRD field isolate). In words: MIC, broth-microdilution (CLSI VET01-A4), strain PM 12080. In kind it is cell-based. As to conditions: Pasteurella multocida strain PM 12080, broth-microdilution; unit assumed. An outline of the steps: as §1
In turn, `CC(C)([C@H](NC(=O)c1ccc(C#Cc2ccc(CNC3CC3)s2)cc1)C(=O)NO)S(C)(=O)=O` [C.311] yielded an MIC PM 12080 of at most 0.1 µg/mL.

Regarding `CC(=O)[C@H](NC(=O)c1ccc(C#Cc2ccc(CN3CCOCC3)cc2)cc1)C(=O)NO` [Compound 399], the MIC PM 12080 came to 0.4 µg/mL (≈ 0.919 µM).

With `COc1ccc(CNCc2ccc(C#Cc3ccc(C(=O)N[C@H](C(=O)NO)C(C)(C)O)cc3)cn2)cc1` [Compound 328], the MIC PM 12080 was at most 0.1 µg/mL.
